Measured values: US20230061736A1, “GPR119 AGONISTS” (Kallyope, Inc., priority 2019, published 2023)

Target: T1, human GPR119 (hGPR119) (Homo sapiens, UniProt Q8TDV5)
T1 construct: expressed in transfected cells
T1 sequence (Q8TDV5 1-335): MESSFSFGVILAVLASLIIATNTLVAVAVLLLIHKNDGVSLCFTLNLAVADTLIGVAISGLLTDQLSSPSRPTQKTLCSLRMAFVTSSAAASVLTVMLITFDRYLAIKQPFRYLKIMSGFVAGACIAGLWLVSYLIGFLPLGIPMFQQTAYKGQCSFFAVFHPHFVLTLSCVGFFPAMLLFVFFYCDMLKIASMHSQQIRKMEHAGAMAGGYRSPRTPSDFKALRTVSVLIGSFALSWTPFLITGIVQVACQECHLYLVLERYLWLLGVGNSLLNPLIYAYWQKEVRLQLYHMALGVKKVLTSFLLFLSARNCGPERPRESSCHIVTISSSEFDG
Assay: cAMP accumulation assay (cAMP Gs dynamic HTRF kit)
Type: cell-based
Conditions: CHO-K1 cells stably expressing hGPR119, 4-parameter fit; for Emax: 1 h, % activity normalized to Max/Min controls; for EC50: cAMP accumulation
Outline: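 Read-out is HTRF 665/620 nm ratio after 1 h detection at ambient temperature, converted to % activity against positive and negative controls, EC50 and Max activity by 4-parameter fit. Compounds were titrated onto ~10,000 thawed hGPR119-CHO-K1 cells/well for 60 min at 37° C/5% CO2.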

| SMILES | Emax [%] | EC50 [nM] |
| --- | --- | --- |
| COCC1(C(=O)NCC(CO)(CO)CO)CCN(C(=O)Cc2ccc(OCCCC3CCN(c4ncc(Cl)cn4)CC3)cc2F)C1 (stereo not drawn) [Example 137, 1-[2-[4-[3-[1-(5-chloropyrimidin-2-yl)-4-piperidyl]propoxy]-2-fluoro-phenyl]acetyl]-N-[3-hydroxy-2,2-bis(hydroxymethyl)propyl]-3-(methoxymethyl)pyrrolidine-3-carboxamide] | 100 to 130 | ≤ 100 |
| O=C(Cc1ccc(OCCC2CCC23CCN(c2ncc(Cl)cn2)CC3)cc1F)N1CC(CNC[C@H](O)[C@@H](O)[C@H](O)[C@H](O)CO)C1 (stereo partly drawn) [Example 138, 2-[4-[2-[7-(5-chloropyrimidin-2-yl)-7-azaspiro[3.5]nonan-3-yl]ethoxy]-2-fluoro-phenyl]-1-[3-[[[(2S,3R,4R,5R)-2,3,4,5,6-pentahydroxyhexyl]amino]methyl]azetidin-1-yl]ethanone] | 50 to 100 | 1000 to 10000 |
| O=C(Cc1c(F)cc(OCCC2CCC23CCN(c2ncc(Cl)cn2)CC3)cc1F)N1CC(CNC[C@H](O)[C@@H](O)[C@H](O)[C@H](O)CO)C1 (stereo partly drawn) [Example 139, 2-[4-[2-[7-(5-chloropyrimidin-2-yl)-7-azaspiro[3.5]nonan-3-yl]ethoxy]-2,6-difluoro-phenyl]-1-[3-[[[(2S,3R,4R,5R)-2,3,4,5,6-pentahydroxyhexyl]amino]methyl]azetidin-1-yl]ethanone] | 100 to 130 | 100 to 1000 |
| CC(C)OC(=O)N1CCC2(CCC2CCOc2ccc(CC(=O)N3CC(CNC[C@H](O)[C@@H](O)[C@H](O)[C@H](O)CO)C3)c(F)c2)CC1 (stereo partly drawn) [Example 140, isopropyl 3-[2-[3-fluoro-4-[2-oxo-2-[3-[[[(2S,3R,4R,5R)-2,3,4,5,6-pentahydroxyhexyl]amino]methyl]azetidin-1-yl]ethyl]phenoxy]ethyl]-7-azaspiro[3.5]nonane-7-carboxylate] | < 50 | > 10000 |
| CC(C)OC(=O)N1CCC2(CCC2CCOc2cc(F)c(CC(=O)N3CC(CNC[C@H](O)[C@@H](O)[C@H](O)[C@H](O)CO)C3)c(F)c2)CC1 (stereo partly drawn) [Example 141, isopropyl 3-[2-[3,5-difluoro-4-[2-oxo-2-[3-[[[(2S,3R,4R,5R)-2,3,4,5,6-pentahydroxyhexyl]amino]methyl]azetidin-1-yl]ethyl]phenoxy]ethyl]-7-azaspiro[3.5]nonane-7-carboxylate] | 50 to 100 | 1000 to 10000 |
| O=C(Cc1ccc(OCCCC2CC23CCN(c2ncc(Cl)cn2)CC3)cc1F)N1CC(CNC[C@H](O)[C@@H](O)[C@H](O)[C@H](O)CO)C1 (stereo partly drawn) [Example 142, 2-[4-[3-[6-(5-chloropyrimidin-2-yl)-6-azaspiro[2.5]octan-2-yl]propoxy]-2-fluoro-phenyl]-1-[3-[[[(2S,3R,4R,5R)-2,3,4,5,6-pentahydroxyhexyl]amino]methyl]azetidin-1-yl]ethanone] | 100 to 130 | 100 to 1000 |
| O=C(Cc1c(F)cc(OCCCC2CC23CCN(c2ncc(Cl)cn2)CC3)cc1F)N1CC(CNC[C@H](O)[C@@H](O)[C@H](O)[C@H](O)CO)C1 (stereo partly drawn) [Example 143] | 100 to 130 | 100 to 1000 |
| O=C(Cc1ccc(OCCCC2CCC23CCN(c2ncc(Cl)cn2)CC3)cc1F)N1CC(CNC[C@H](O)[C@@H](O)[C@H](O)[C@H](O)CO)C1 (stereo partly drawn) [Example 144, 2-[4-[3-[7-(5-chloropyrimidin-2-yl)-7-azaspiro[3.5]nonan-3-yl]propoxy]-2-fluoro-phenyl]-1-[3-[[[(2S,3R,4R,5R)-2,3,4,5,6-pentahydroxyhexyl]amino]methyl]azetidin-1-yl]ethanone] | 100 to 130 | 1000 to 10000 |
| CC(C)OC(=O)N1CCC2(CC1)CC2CCCOc1ccc(CC(=O)N2CC(CNC[C@H](O)[C@@H](O)[C@H](O)[C@H](O)CO)C2)c(F)c1 (stereo partly drawn) [Example 145, isopropyl 2-[3-[3-fluoro-4-[2-oxo-2-[3-[[[(2S,3R,4R,5R)-2,3,4,5,6-pentahydroxyhexyl]amino]methyl]azetidin-1-yl]ethyl]phenoxy]propyl]-6-azaspiro[2.5]octane-6-carboxylate] | 50 to 100 | 1000 to 10000 |
| CC(C)OC(=O)N1CCC2(CC1)CC2CCCOc1cc(F)c(CC(=O)N2CC(CNC[C@H](O)[C@@H](O)[C@H](O)[C@H](O)CO)C2)c(F)c1 (stereo partly drawn) [Example 146, isopropyl 2-[3-[3,5-difluoro-4-[2-oxo-2-[3-[[[(2S,3R,4R,5R)-2,3,4,5,6-pentahydroxyhexyl]amino]methyl]azetidin-1-yl]ethyl]phenoxy]propyl]-6-azaspiro[2.5]octane-6-carboxylate] | 100 to 130 | 100 to 1000 |
| O=C(Cc1ccc(OCCCC2CCN(c3ncc(Cl)cn3)CC2)cc1F)N1CC[C@@H](CNCC(CO)(CO)CO)C1 [Example 147, 2-[4-[3-[1-(5-chloropyrimidin-2-yl)-4-piperidyl]propoxy]-2-fluoro-phenyl]-1-[(3S)-3-[[[3-hydroxy-2,2-bis(hydroxymethyl)propyl]amino]methyl]pyrrolidin-1-yl]ethanone] | 100 to 130 | ≤ 100 |
| O=C(Cc1ccc(OCCCC2CCN(c3ncc(Cl)cn3)CC2)cc1F)N1CC[C@@H](CNC(CO)(CO)CO)C1 [Example 148, 2-[4-[3-[1-(5-chloropyrimidin-2-yl)-4-piperidyl]propoxy]-2-fluoro-phenyl]-1-[(3S)-3-[[[2-hydroxy-1,1-bis(hydroxymethyl)ethyl]amino]methyl]pyrrolidin-1-yl]ethanone] | ≥ 130 | ≤ 100 |
| O=C(Cc1c(F)cc(OCCCC2CCN(c3ncc(Cl)cn3)CC2)cc1F)N1CC[C@@H](CNC(CO)(CO)CO)C1 [Example 149, 2-[4-[3-[1-(5-chloropyrimidin-2-yl)-4-piperidyl]propoxy]-2,6-difluoro-phenyl]-1-[(3S)-3-[[[2-hydroxy-1,1-bis(hydroxymethyl)ethyl]amino]methyl]pyrrolidin-1-yl]ethanone] | ≥ 130 | ≤ 100 |
| O=C(Cc1c(F)cc(OCCCC2CCN(c3ncc(Cl)cn3)CC2)cc1F)N1CC[C@@H](CNCC(O)(CO)CO)C1 [Example 150, 2-[4-[3-[1-(5-chloropyrimidin-2-yl)-4-piperidyl]propoxy]-2,6-difluoro-phenyl]-1-[(3S)-3-[[[2,3-dihydroxy-2-(hydroxymethyl)propyl]amino]methyl]pyrrolidin-1-yl]ethanone] | 100 to 130 | ≤ 100 |
| O=C(Cc1c(F)cc(OCCCC2CCN(c3ncc(Cl)cn3)CC2)cc1F)N1CC[C@@H](CNCC(CO)(CO)CO)C1 [Example 151, 2-[4-[3-[1-(5-chloropyrimidin-2-yl)-4-piperidyl]propoxy]-2,6-difluoro-phenyl]-1-[(3S)-3-[[[3-hydroxy-2,2-bis(hydroxymethyl)propyl]amino]methyl]pyrrolidin-1-yl]ethanone] | ≥ 130 | ≤ 100 |
| CCOc1cnc(N2CCC(CCCOc3ccc(CC(=O)N4CC[C@@H](CNC(CO)(CO)CO)C4)c(F)c3)CC2)nc1 [Example 152, 2-[4-[3-[1-(5-ethoxypyrimidin-2-yl)-4-piperidyl]propoxy]-2-fluoro-phenyl]-1-[(3S)-3-[[[2-hydroxy-1,1-bis(hydroxymethyl)ethyl]amino]methyl]pyrrolidin-1-yl]ethanone] | ≥ 130 | ≤ 100 |
| CCOc1cnc(N2CCC(CCCOc3ccc(CC(=O)N4CC[C@@H](CNCC(O)(CO)CO)C4)c(F)c3)CC2)nc1 [Example 153, 2-[4-[3-[1-(5-ethoxypyrimidin-2-yl)-4-piperidyl]propoxy]-2-fluoro-phenyl]-1-[(3S)-3-[[[2,3-dihydroxy-2-(hydroxymethyl)propyl]amino]methyl]pyrrolidin-1-yl]ethanone] | ≥ 130 | ≤ 100 |
| CCOc1cnc(N2CCC(CCCOc3ccc(CC(=O)N4CC[C@@H](CNCC(CO)(CO)CO)C4)c(F)c3)CC2)nc1 [Example 154, 2-[4-[3-[1-(5-ethoxypyrimidin-2-yl)-4-piperidyl]propoxy]-2-fluoro-phenyl]-1-[(3S)-3-[[[3-hydroxy-2,2-bis(hydroxymethyl)propyl]amino]methyl]pyrrolidin-1-yl]ethanone] | 100 to 130 | ≤ 100 |
| CCOc1cnc(N2CCC(CCCOc3cc(F)c(CC(=O)N4CC[C@@H](CNCC(O)(CO)CO)C4)c(F)c3)CC2)nc1 [Example 156, 2-[4-[3-[1-(5-ethoxypyrimidin-2-yl)-4-piperidyl]propoxy]-2,6-difluoro-phenyl]-1-[(3S)-3-[[[2,3-dihydroxy-2-(hydroxymethyl)propyl]amino]methyl]pyrrolidin-1-yl]ethanone] | ≥ 130 | ≤ 100 |
| CCOc1cnc(N2CCC(CCCOc3cc(F)c(CC(=O)N4CC[C@@H](CNCC(CO)(CO)CO)C4)c(F)c3)CC2)nc1 [Example 157, 2-[4-[3-[1-(5-ethoxypyrimidin-2-yl)-4-piperidyl]propoxy]-2,6-difluoro-phenyl]-1-[(3S)-3-[[[3-hydroxy-2,2-bis(hydroxymethyl)propyl]amino]methyl]pyrrolidin-1-yl]ethanone] | ≥ 130 | ≤ 100 |
| COCc1cnc(N2CCC(CCCOc3cc(F)c(CC(=O)N4CC[C@@H](CNC(CO)(CO)CO)C4)c(F)c3)CC2)nc1 [Example 158, 2-[2,6-difluoro-4-[3-[1-[5-(methoxymethyl)pyrimidin-2-yl]-4-piperidyl]propoxy]phenyl]-1-[(3S)-3-[[[2-hydroxy-1,1-bis(hydroxymethyl)ethyl]amino]methyl]pyrrolidin-1-yl]ethanone] | 100 to 130 | ≤ 100 |
